Measurements reported in US4650811A, “Ethenylphenol-indoles having antiarythmic utility” (Roussel Uclaf, priority 1984, dated 1987).

Assays:
α2 - adrenergic receptor = α2 - adrenergic receptor affinity (3H rauwolscine displacement, rat cortices); type: binding; conditions: ARL=100 CD/CX relative to phentolamine, 25° C., 45 minutes
Description: 10 cortices removed from the brains of male rats weighing on the average […] were homogenized in 90 ml of 0.32 M sucrose and after centrifuging the homogenized mixture at 1,000 g for 10 minutes at 0° C., the supernatant was centrifuged at 30,000 g for 10 minutes at 0° C. to +4° C. The residue was suspended in 240 ml of Tris HCl 50 mM buffer, pH 7.7 and centrifuged at 30,000 g for 15 minutes at 0° to +4° C. The new residue obtained was suspended in 480 ml of NaKPO4 50 mM buffer, pH 7.4. Then, 2 ml of suspension were incubated for 45 minutes at 25° C. in the presence of ^3 H rauwolscine at a concentration of […]:
(§1) (ii) with increasing concentrations of the product under test, or
(iii) to determine the non-specific fixation, with non-radioactive phentolamine at a concentration of 10^-5 M.
The incubated suspensions were filtered on Whatman GF/C and the filters were washed three times with 5 ml of NaKPO4 buffer, pH 7.4, at 0° C. The radio-activity of the filters was measured by liquid scintillation. The affinity of the product under test for the α2 - adrenergic receptors were given relative to phentolamine as reference product. CD=concentration of phentolamine inhibiting 50% of the specific fixation of ^3 H rauwolscine:
CX=concentration of the product under test inhibiting 50% of the specific fixation of ^3 H rauwolscine.

β1 - adrenergic receptor = target: T1, β1 - adrenergic receptor (Rattus norvegicus, UniProt P18090); test: β1 - adrenergic receptor affinity (3H dihydroalprenolol displacement, rat cortices); type: binding; conditions: ARL=100 CD/CX relative to propranolol; 3H dihydroalprenolol 10^-9 M, 37° C., 10 minutes
T1 construct: 10 cortices removed from the brains of rats; from tissue; host or cells: rat brain cortex, membrane preparation
T1 sequence (P18090 whole entry): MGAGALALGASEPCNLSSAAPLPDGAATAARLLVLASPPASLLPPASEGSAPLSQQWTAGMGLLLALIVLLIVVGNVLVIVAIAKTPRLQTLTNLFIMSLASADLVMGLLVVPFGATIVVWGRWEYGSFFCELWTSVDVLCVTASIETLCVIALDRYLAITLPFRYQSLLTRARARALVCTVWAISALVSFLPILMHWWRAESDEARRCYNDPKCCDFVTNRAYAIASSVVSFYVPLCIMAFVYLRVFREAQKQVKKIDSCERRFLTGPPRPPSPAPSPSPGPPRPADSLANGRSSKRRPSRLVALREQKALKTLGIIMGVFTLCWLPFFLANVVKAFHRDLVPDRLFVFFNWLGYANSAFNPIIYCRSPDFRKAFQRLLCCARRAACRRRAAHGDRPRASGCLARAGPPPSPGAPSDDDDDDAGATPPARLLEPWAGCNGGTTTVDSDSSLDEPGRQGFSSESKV
Description: 10 cortices removed from the brains of rats weighing on the average 150 g were homogenized in 90 ml of 0.32 M sucrose and after centrifuging the homogenized mixture at 1,000 g for 20 minutes at 0° C., the supernatant was centrifugated at 30,000 g for 15 minutes at 0° C. to +4° C. The residue was suspended in 120 ml of Tris HCl 50 mM buffer pH 7.7 and centrifuged at 30,000 g for 15 minutes at 0° C. to +4° C. The new residue obtained was suspended in 480 ml of Krebs Tris HCl 50 mM buffer, 7.7 pH. Then, 2 ml of the suspension were incubated for 10 minutes at 37° C. in the presence of ^3 H dihydroalprenolol at a concentration of 10^-9 M:
as §1
(iii) to determine the non-specific fixation, with non-radioactive propranolol at a concentration of 10^-5 M.
The incubated suspensions were filtered on Whatman GF/C and the filters were washed three times with 5 ml of Krebs Tris HCl buffer pH 7.7 at 0° C. The radio-activity of the filters was measured by liquid scintillation. The affinity of the product for the adrenergic receptors was given relative to propranolol as reference product,
CD=concentration of propranolol inhibiting 50% of the specific fixation of the ^3 H dihydroalprenolol: CX=concentration of the product under test inhibiting 50% of the specific fixation of the ^3 H dihydroalprenolol.

β2 - adrenergic receptor = target: T2, β2 - adrenergic receptor (Rattus norvegicus, UniProt P10608); test: β2 - adrenergic receptor affinity (3H dihydroalprenolol displacement, rat cerebelli); type: binding; conditions: ARL=100 CD/CX relative to propranolol; 3H dihydroalprenolol 10^-9 M, 37° C., 10 minutes
T2 construct: The cerebelli removed from the brains of male rats; from tissue; host or cells: rat cerebellum, membrane preparation
T2 sequence (P10608 whole entry): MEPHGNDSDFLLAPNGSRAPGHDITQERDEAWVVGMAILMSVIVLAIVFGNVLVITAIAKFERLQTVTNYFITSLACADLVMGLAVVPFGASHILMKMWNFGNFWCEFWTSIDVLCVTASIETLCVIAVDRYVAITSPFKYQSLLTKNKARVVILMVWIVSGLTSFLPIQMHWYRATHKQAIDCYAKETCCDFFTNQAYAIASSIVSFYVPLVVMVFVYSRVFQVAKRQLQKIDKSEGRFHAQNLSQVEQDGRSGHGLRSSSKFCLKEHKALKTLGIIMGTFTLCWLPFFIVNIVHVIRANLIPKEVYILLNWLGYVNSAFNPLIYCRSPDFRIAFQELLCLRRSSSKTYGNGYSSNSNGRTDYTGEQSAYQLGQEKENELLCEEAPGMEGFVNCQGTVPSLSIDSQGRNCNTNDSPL
Description: The cerebelli removed from the brains of male rats weighing on the average 150 g were homogenized in 90 ml of 0.32 M sucrose and after centrifuging the homogenized mixture at 1,000 g for 20 minutes at 0° C., the supernatant was centrifuged at 30,000 g for 15 minutes at 0° C. to +4° C. The residue was suspended in 120 ml of Tris HCl 50 mM buffer pH 7.7, and centrifuged at 30,000 g for 15 minutes at 0° to +4° C. The new residue obtained was suspended in 480 ml of Krebs Tris HCl buffer, pH 7.7. 2 ml of the suspension were then incubated at 37° C. for 10 minutes in the presence of 3H dihydroalprenolol at a concentration of 10^-9 M:
(ii) with increasing concentrations of the product under test
(iii) to determine the non-specific fixation, with non-radio-active propranolol at a concentration of 10^-5 M. The incubated suspensions were filtered on Whatman GF/C and the filters were washed three times with 5 ml of Krebs Tris HCl buffer pH 7.7 at 0° C.
The radio-activity of the filters was measured by liquid scintillation. The affinity of the test product for β2 - adrenergic receptors was given relative to propranolol as reference product.
CD=concentration of propranolol inhibiting 50% of the specific fixation of ^3 H dihydroalprenolol:
CX=concentration of the product under test inhibiting 50% of the specific fixation of the ^3 H dihydroalprenolol.

[1] = test system: arterial pressure of male rats of Wistar strain; test: Hypotensive activity (carotid arterial pressure in anesthetized rats); type: in vivo, rat (Wistar); conditions: 1 mg/Kg, intravenous, vs initial control arterial pressure
Description: The hypotensive activity was studied on male rats of Wistar strain weighing about 300 g and anesthetized with 50 mg/Kg by intravenous route of sodium pentobarbital. The product tested was administered by intravenous route in the jugular vein and the pressure in the carotid artery was measured before and after administration of the product tested. The following table reports the variations expressed in percentage of the arterial pressure after administration of the product tested by comparison with the initial control arterial pressure.

Rat caudal arteries = test: Anti-calcic activity in vitro: inhibition of K+-depolarized, Ca2+-induced contraction of rat caudal arteries; conditions: rat caudal artery, depolarized with 100 mM K+, Ca2+ 0.1 to 3.0 mM, 37° C.
Description: Rat caudal arteries were cut into a spiral and were attached to tension sensors and were kept in tanks of […] of Krebs buffer-sodium bicarbonate (NaCl: 120.8 mM, KCl: 5.9 mM, MgCl2 : 1.2 mM, NaH2 PO4 : 1.2 mM, NaHCO3 : 15.5 mM, glucose: 12.6 mM) at 37° C. gassed with a mixture of O2 : 95% - CO2 : 5%. The preparations were depolarized with a buffer solution with a concentration of 100 mM in K^+ ions (NaCl: 26.7 mM, KCl: 100 mM, MgCl2 : 1.2 mM, NaH2 PO4 : 1.2 mM, NaHCO3 : 15.5 mM, glucose: 12.6 mM). Calcium chloride was added in a volume of 250 μ1 to obtain a range of increasing concentrations of Ca^2+ ions from 0.1 to 3.0 mM. The contractions of the arteries were recorded and a control range was established in this way. The operation was repeated every 15 minutes with the Ca^2+ range of ions and the preparation was washed four times after each range.
When a stable response had been obtained, the operation with the range of Ca^2+ ions was carried out in the presence of different concentrations of the product under test until a stable response was obtained. The contractions of the arteries depend on the entry of the Ca^2+ ions into the cells of the smooth muscles and are caused by the depolarization of the smooth muscle by the K^+ ions and by the action of the noradrenaline liberated at the presynaptic level. By repeating the operation with the arteries denervated by the action of 6-OH dopamine, the specific action due to the noradrenaline was suppressed.

mice = test: Acute toxicity after oral administration to mice; type: in vivo
Description: The lethal doses LD0 for the different test compounds were evaluated after oral administration to mice and the maximum dose not causing any mortality in 8 days was called LD0.

[2] = test system: disorders of the cardiac rhythm (aconitine) in rats; test: Anti-arrhythmic activity in rats (aconitine-induced disorders of the cardiac rhythm); type: in vivo, rat; conditions: intravenous, aconitine 10 μg/min five minutes after product, in comparison with controls
Description: Male rats weighing 300-350 g anesthetized by intraperitoneal route with 1.20 g/Kg of urethane were tracheotomized and submitted to artifical respiration (40-50 insufflations of 3 ml/minute). Needles were implanted sub-cutaneously to record the electro-cardiogram of the rats on the signal in derivation DII. The products under test were administered by intravenous route.
Five minutes after the product was administered, the jugular vein of the rats was perfused with 10 μg/min. of an aconitine solution and the time of appearance of disorders of the cardiac rhythm was noted. The results were expressed in percentage of the extension of the time of appearance of disorders of the cardiac rhythm in comparison with controls and as a function of the dose of the product under test.

| SMILES | ARL (relative affinity) (α2 - adrenergic receptor) | ARL (relative affinity) (β1 - adrenergic receptor) | ARL (relative affinity) (β2 - adrenergic receptor) | % Variation of the arterial pressure ([1]; 1 min. after administration) | % Variation of the arterial pressure ([1]; 5 min. after administration) | % Variation of the arterial pressure ([1]; 10 min. after administration) | % Variation of the arterial pressure ([1]; 30 min. after administration) | IC50 (Rat caudal arteries) | LD0 (maximum dose not causing any mortality in 8 days) (mice) | Percentage of extension of time of appearance of disorders of the cardiac rhythm ([2]; 5 mg/Kg) | Percentage of extension of time of appearance of disorders of the cardiac rhythm ([2]; 10 mg/Kg) |
| --- | --- | --- | --- | --- | --- | --- | --- | --- | --- | --- | --- |
| CC(C)NCC(O)COc1ccccc1/C=C/c1cccc2[nH]ccc12 (stereo not drawn) [Example 1, 1-[2-[2-(1H-indol-4-yl)-ethenyl]-phenoxy]-3-[isopropyl-amino]-2-propanol] | 0.1% | 92.5% | 18% | -11% | -11% | -12% | -13% | 4000 nM | > 100 mg/kg | – | – |
| CC(C)(C)NCC(O)COc1ccccc1/C=C/c1cccc2[nH]ccc12 (stereo not drawn) [Example 2, 1-[(1,1-dimethylethyl)-amino]-3-[2-[2-(1H-indol-4-yl)-ethenyl]-phenoxy]-2-propanol] | – | 198% | 172% | -17% | -10% | -10% | -14% | 1200 nM | > 100 mg/kg | 30% | 110% |
| CC(C)(C)NCC(O)COc1ccc(/C=C/c2cccc3[nH]ccc23)cc1 (stereo not drawn) [Example 3, 1-[(1,1-dimethylethyl)-amino]-3-[4-[2-(1H-indol-4-yl)-ethenyl]-phenoxy]-2-propanol] | 0.7% | 0.8% | 0.1% | – | – | – | – | 600 nM | > 100 mg/kg | – | – |
| CC(C)NCC(O)COc1ccc(/C=C/c2cccc3[nH]ccc23)cc1 (stereo not drawn) [Example 4] | 0.0% | 1.0% | 0.03% | – | – | – | – | 3500 nM | 60 mg/kg | – | – |
| CC(C)(C)NCC(O)COc1ccc(/C=C/c2cccc3c2CC(=O)N3)cc1 (stereo not drawn) [Example 5, 1,3-dihydro-4-[2-[4-[3-[(1,1-dimethylethyl)-amino]-2-hydroxypropoxy]-phenyl]-ethenyl]-2H-indol-2-one] | – | – | – | – | – | – | – | 2500 nM | > 100 mg/kg | – | – |
| CC(C)(C)NCCCOc1ccccc1/C=C/c1cccc2[nH]ccc12 [Example 6, N-(1,1-dimethylethyl)-3-[2-[2-(1H-indol-4-yl)-ethenyl]-phenoxy]-propanamine] | – | – | – | – | – | – | – | 2000 nM | > 400 mg/kg | 49% | – |
| CC(C)(C)NCC(O)COc1ccccc1CCc1cccc2[nH]ccc12 (stereo not drawn) [Example 8, 1-[(1,1-dimethylethyl)-amino]-3-[2-[2-(1H-indol-4-yl)-ethyl]-phenoxy]-2-propanol] | – | – | – | – | – | – | – | 1500 nM | > 400 mg/kg | 162% | – |
| CC(C)(C)NCC(O)COc1ccccc1/C=C/c1cccc2c1CC(=O)N2 (stereo not drawn) [Example 9, 1,3-dihydro-4-[2-[2-[3-[(1,1-dimethylethyl)-amino]-2-hydroxypropoxy]-phenyl]-ethenyl]-2H-indol-2-one] | – | – | – | – | – | – | – | 1400 nM | – | 167% | – |
| CC(C)(C)NCCOc1ccccc1/C=C/c1cccc2[nH]ccc12 [Example 11, N-(1,1-dimethylethyl)-2-[2-[2-(1H-indol-4-yl)-ethenyl]-phenoxy]-ethanamine (trans E)] | – | – | – | – | – | – | – | – | 200 mg/kg | 41% | – |
| CC(C)(C)NCCCOc1ccccc1CCc1cccc2[nH]ccc12 [Example 12, N-(1,1-dimethylethyl)-3-[2-[2-(1H-indol-4-yl)-ethyl]-phenoxy]-propanamine] | – | – | – | – | – | – | – | 300 nM | – | – | – |
